Source: the supplement of paper PMC10307832

Experiments:
Test in all cases: relative viability (nuclei count vs DMSO), 5 days (fraction); higher = more cells survive
[1] = compound: Nc1ccn([C@@H]2O[C@H](CO)[C@@H](O)C2(F)F)c(=O)n1 [Gemcitabine] + Cc1cc(Nc2cc(N3CCN(C)CC3)nc(Sc3ccc(NC(=O)C4CC4)cc3)n2)n[nH]1 [Tozasertib] (partner 0.1 µM)
Outline: (§1)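 Nuclei were stained with Hoechst during a one-step fixation (final 0.05% Triton X-100, 1% formaldehyde, 1 ug/ml Hoechst) carried out 5 days after dosing, then counted on 4× images. The cells, lung cancer lines in 1536-well plates, had been dosed by pin tool the day after seeding with one drug alone or a fixed anchor-drug dose plus five library-drug doses (not always all listed) in √10 steps. Relative viability is the nuclei count in treated wells divided by that in vehicle wells, and each value is the median of duplicate plates.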

[2] = compound: Nc1ccn([C@@H]2O[C@H](CO)[C@@H](O)C2(F)F)c(=O)n1 [Gemcitabine] + CC(C)C[C@H](NC(=O)[C@H](Cc1ccccc1)NC(=O)c1cnccn1)B(O)O [Bortezomib] (partner 0.002 µM)
Outline: as §1

[3] = compound: Nc1ccn([C@@H]2O[C@H](CO)[C@@H](O)C2(F)F)c(=O)n1 [Gemcitabine] + Nc1ncn([C@H]2C[C@H](O)[C@@H](CO)O2)c(=O)n1 [Decitabine] (partner 2 µM)
Outline: as §1

[4] = compound: Nc1ccn([C@@H]2O[C@H](CO)[C@@H](O)C2(F)F)c(=O)n1 [Gemcitabine] + NC(=O)Nc1cc(-c2cccc(F)c2)sc1C(=O)N[C@H]1CCCNC1 [AZD7762] (partner 0.2 µM)
Outline: as §1

| Cell Line | relative viability ([1]; first compound 0.001 µM) | relative viability ([1]; first compound 0.003162 µM) | relative viability ([1]; first compound 0.01 µM) | relative viability ([1]; first compound 0.03162 µM) | relative viability ([1]; first compound 0.1 µM) | relative viability ([2]; first compound 0.001 µM) | relative viability ([2]; first compound 0.003162 µM) | relative viability ([2]; first compound 0.01 µM) | relative viability ([2]; first compound 0.03162 µM) | relative viability ([2]; first compound 0.1 µM) | relative viability ([3]; first compound 0.001 µM) | relative viability ([3]; first compound 0.003162 µM) | relative viability ([3]; first compound 0.01 µM) | relative viability ([3]; first compound 0.03162 µM) | relative viability ([3]; first compound 0.1 µM) | relative viability ([4]; first compound 0.001 µM) | relative viability ([4]; first compound 0.003162 µM) | relative viability ([4]; first compound 0.01 µM) | relative viability ([4]; first compound 0.03162 µM) | relative viability ([4]; first compound 0.1 µM) |
| --- | --- | --- | --- | --- | --- | --- | --- | --- | --- | --- | --- | --- | --- | --- | --- | --- | --- | --- | --- | --- |
| NCI-H661 | 0.367 | 0.366 | 0.338 | 0.263 | 0.219 | 0.838 | 0.655 | 0.491 | 0.213 | 0.209 | 0.569 | 0.582 | 0.465 | 0.346 | 0.237 |  |  |  |  |  |
| HCC-366 | 0.14 | 0.105 | 0.0801 | 0.0228 | 0.0235 | 1.05 | 1.01 | 0.425 | 0.0213 | 0.0123 | 0.329 | 0.331 | 0.0609 | 0.0417 | 0.0234 | 0.27 | 0.16 | 0.0204 | 0.0203 | 0.0152 |
| NCI-H1944 | 0.253 | 0.266 | 0.251 | 0.188 | 0.105 |  |  |  |  |  | 0.44 | 0.409 | 0.443 | 0.381 | 0.193 | 0.518 | 0.36 | 0.0907 | 0.109 | 0.086 |
| SW 1573 | 0.189 | 0.165 | 0.0964 | 0.0589 | 0.0466 | 1.16 | 0.853 | 0.538 | 0.086 | 0.0926 | 0.529 | 0.158 | 0.113 | 0.0711 | 0.0511 |  |  |  |  |  |
| COR-L 105 | 0.38 | 0.31 | 0.349 | 0.263 | 0.191 | 0.867 | 0.851 | 0.479 | 0.23 | 0.201 | 0.68 | 0.596 | 0.46 | 0.37 | 0.3 |  |  |  |  |  |
| EBC-1 |  |  |  |  |  | 0.53 | 0.307 | 0.15 | 0.198 | 0.164 |  |  |  |  |  |  |  |  |  |  |
| SK-LU-1 | 0.303 | 0.207 | 0.131 | 0.145 | 0.14 | 1.16 | 0.281 | 0.23 | 0.175 | 0.224 | 0.623 | 0.635 | 0.376 | 0.24 | 0.246 |  |  |  |  |  |
| SW 900 | 0.462 | 0.241 | 0.127 | 0.0969 | 0.109 |  |  |  |  |  | 0.325 | 0.372 | 0.267 | 0.148 | 0.169 | 0.423 | 0.214 | 0.109 | 0.147 | 0.112 |
| NCI-H522 | 0.555 | 0.396 | 0.379 | 0.354 | 0.312 |  |  |  |  |  | 0.653 | 0.577 | 0.502 | 0.352 | 0.342 | 0.709 | 0.384 | 0.286 | 0.323 | 0.204 |
| NCI-H520 | 0.422 | 0.446 | 0.316 | 0.208 | 0.239 | 0.604 | 0.698 | 0.295 | 0.154 | 0.11 | 0.525 | 0.48 | 0.289 | 0.189 | 0.198 |  |  |  |  |  |
| UMC-11 | 0.197 | 0.162 | 0.221 | 0.211 | 0.215 | 0.979 | 0.693 | 0.677 | 0.669 | 0.158 | 0.57 | 0.417 | 0.518 | 0.37 | 0.311 |  |  |  |  |  |
